Laboratory results taken from ChEMBL document CHEMBL1201862, “PubChem BioAssay data set” (2004).
Calls of active or inactive are those of the source.

Key:
[1] = target: Mothers against decapentaplegic homolog 3 (Homo sapiens, UniProt P84022); experiment: blockers of Smad3 complex formation in lysate – cell lysate, secondary confirmation, chemiluminescent ELISA, HEK293 lysate, dose response (AID 1058); format: functional
[2] = target: Polyadenylate-binding protein 1 (Homo sapiens, UniProt P11940); experiment: blockers of PABP interaction with poly(A) – biochemical, fluorescence polarization, […] (AID 2014)
[3] = target: Eukaryotic translation initiation factor 4H (Homo sapiens, UniProt Q15056); experiment: eIF4H binding inhibition – biochemical, uHTS, fluorescence polarization, translation initiation inhibitor project, primary screen (AID 2012)
[4] = target: T1, Eukaryotic translation initiation factor 2-alpha kinase 3 (Homo sapiens, UniProt Q9NZJ5); experiment: Dose response cell-based high-throughput screening assay to measure PERK inhibition. [Related pubchem assays: 1416 ]; format: functional
[5] = target: T1, Eukaryotic translation initiation factor 2-alpha kinase 3; experiment: Counterscreen assay for PERK inhibitors: Dose response cell-based high throughput screening assay to measure inhibition of PERK at 6 hours. [Related pubchem assays: 1522, 1416 ]; format: functional
[6] = target: Melanin-concentrating hormone receptor 1 (Homo sapiens, UniProt Q99705); experiment: Fluorescence-based counterscreen for antagonists of the G-protein coupled receptor 7 (GPR7): cell-based high throughput dose response assay to identify antagonists of the melanin-concentrating hormone receptor 1 (MCHR1).; format: functional
[7] = target: T2, Neuropeptides B/W receptor type 1 (Homo sapiens, UniProt P48145); experiment: Fluorescence-based dose response cell-based high throughput screening assay to identify antagonists of the G-protein coupled receptor 7 (GPR7). [Related pubchem assays: 1952 (Screening assay (GPR7 antagonists).), 1880 (Summary AID.)]; format: functional
T2 sequence (P48145 whole entry): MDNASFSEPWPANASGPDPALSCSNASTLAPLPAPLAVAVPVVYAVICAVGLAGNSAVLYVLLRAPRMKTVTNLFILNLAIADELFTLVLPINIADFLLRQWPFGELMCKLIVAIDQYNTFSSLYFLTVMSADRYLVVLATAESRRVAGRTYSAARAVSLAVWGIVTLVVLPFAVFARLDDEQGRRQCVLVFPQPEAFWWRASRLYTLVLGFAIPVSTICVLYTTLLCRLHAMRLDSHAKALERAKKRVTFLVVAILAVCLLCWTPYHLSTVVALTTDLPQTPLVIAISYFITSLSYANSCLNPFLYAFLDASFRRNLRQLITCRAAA

[8] = HEK-293T cell viability reduction – luminescence, B-cell screen hits, cytotoxicity control for BCR NF-kB inhibitor project, dose response (AID 489021); format: functional, cell-based;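 further: HEK-293T cells carrying an NF-kB luciferase reporter; cells exposed to compound for about 14 hours before viability readout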
Wee1-like protein kinase = Wee1-like protein kinase (Homo sapiens, UniProt P30291); experiment: HeLa cell cycle G2/M accumulation – FACS, mechanism study for Wee1 degradation inhibitor project, late-stage follow-up, panel member Wee1 Degradation (AID 2088)
[9] = target: G2/mitotic-specific cyclin-B1 (Homo sapiens, UniProt P14635); experiment: HeLa cell cycle G2/M accumulation – FACS, mechanism study for Wee1 degradation inhibitor project, late-stage follow-up, panel member Cyclin B Degradation (AID 2088)
Cytochrome P450 1A2 = target: T3, Cytochrome P450 1A2 (Homo sapiens, UniProt P05177);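 further: PubChem cytochrome P450 panel assay, CYP1A2 panel member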
T3 sequence (P05177 whole entry): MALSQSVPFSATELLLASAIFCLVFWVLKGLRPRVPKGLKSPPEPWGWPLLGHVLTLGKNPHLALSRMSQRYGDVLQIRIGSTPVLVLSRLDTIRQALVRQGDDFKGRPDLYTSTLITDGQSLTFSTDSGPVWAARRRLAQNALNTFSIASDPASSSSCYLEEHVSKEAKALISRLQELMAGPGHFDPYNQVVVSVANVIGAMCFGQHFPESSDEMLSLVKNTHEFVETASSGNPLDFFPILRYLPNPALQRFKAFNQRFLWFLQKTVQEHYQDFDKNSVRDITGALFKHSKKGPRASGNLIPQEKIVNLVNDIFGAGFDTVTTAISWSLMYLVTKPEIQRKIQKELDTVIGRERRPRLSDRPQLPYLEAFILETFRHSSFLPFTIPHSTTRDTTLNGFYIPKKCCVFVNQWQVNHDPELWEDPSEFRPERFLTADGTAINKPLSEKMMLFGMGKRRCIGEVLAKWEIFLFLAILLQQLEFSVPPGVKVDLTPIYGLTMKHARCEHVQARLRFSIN

NS3 = NS3 (Hepatitis C virus, UniProt A3EZJ3); experiment: PubChem AID 2173; set-up: species or system Hepacivirus hominis
Cytochrome P450 3A4 = Cytochrome P450 3A4 (Homo sapiens, UniProt P08684);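 further: CYP3A4 tested as one member of a cytochrome P450 panel screen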
[10] = target: T4, Neuropeptide Y receptor type 2 (Homo sapiens, UniProt P49146); experiment: Fluorescence-based cell-based high-throughput dose response assay for agonists of NPY-Y2. [Related pubchem assays: 1703 (Screening assay (CNGC inhibitors).), 1359 (Screening assay (NPY-Y2 potentiators or agonists).), 1304 (Screening assay (NPY-Y1 potentiators or agonists).), 1710 (Screening assay (NPY-Y2 agonists).), 1791 (Summary AID.)]; format: functional
T4 sequence (P49146 whole entry): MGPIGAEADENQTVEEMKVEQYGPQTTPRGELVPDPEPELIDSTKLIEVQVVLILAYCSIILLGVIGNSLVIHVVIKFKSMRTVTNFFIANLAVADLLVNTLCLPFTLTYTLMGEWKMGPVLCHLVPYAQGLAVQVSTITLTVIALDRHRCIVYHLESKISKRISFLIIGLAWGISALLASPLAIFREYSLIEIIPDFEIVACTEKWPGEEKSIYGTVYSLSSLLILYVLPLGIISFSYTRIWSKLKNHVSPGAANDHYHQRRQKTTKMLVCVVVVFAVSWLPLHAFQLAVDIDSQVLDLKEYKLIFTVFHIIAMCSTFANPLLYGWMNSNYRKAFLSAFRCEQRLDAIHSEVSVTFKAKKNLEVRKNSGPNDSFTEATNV

[11] = target: T5, Neuropeptide Y receptor type 1 (Homo sapiens, UniProt P25929); experiment: Fluorescence-based counterscreen for agonists of NPY-Y2: cell-based high-throughput dose response assay for agonists of NPY-Y1.; format: functional
T5 sequence (P25929 whole entry): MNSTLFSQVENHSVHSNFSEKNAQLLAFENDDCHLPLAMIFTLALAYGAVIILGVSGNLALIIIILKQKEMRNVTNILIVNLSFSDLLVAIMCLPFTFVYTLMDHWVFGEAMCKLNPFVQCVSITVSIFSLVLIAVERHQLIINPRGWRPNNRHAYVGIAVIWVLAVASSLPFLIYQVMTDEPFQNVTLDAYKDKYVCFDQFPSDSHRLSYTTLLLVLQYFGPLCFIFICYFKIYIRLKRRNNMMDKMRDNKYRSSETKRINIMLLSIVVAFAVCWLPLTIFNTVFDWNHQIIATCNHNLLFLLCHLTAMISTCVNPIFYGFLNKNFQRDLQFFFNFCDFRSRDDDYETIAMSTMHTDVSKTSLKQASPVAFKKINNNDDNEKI

HEK293 = experiment: Fluorescence-based counterscreen for potentiators or agonists of NPY-Y2: cell-based high-throughput dose response assay to identify inhibitors of cyclic nucleotide gated ion channel (CNGC) activity. In this assay, the parental HEK293 cell line transfected with a cyclic-nucleotide gated ion channel (CNGC)-based cAMP sensor is used to measure inhibition of isoproterenol-induced CNGC activity by test compound.; format: functional; settings: Homo sapiens;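 further: stimulus is 1 µM isoproterenol at EC100 plus PDE inhibitor Ro 20-1724 at 25 µM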
[12] = target: Luciferin 4-monooxygenase (Photinus pyralis, UniProt P08659); experiment: Counter Screen for Luciferase-based Assay Positives. [Related pubchem assays: 620, 618, 411 ]
HT-1080 = experiment: HT1080 cell viability loss – fluorescence readout (AID 620); format: functional, cell-based; settings: Homo sapiens
[13] = target: Lysosomal acid glucosylceramidase (Homo sapiens, UniProt P04062); experiment: Dose response cell-based high throughput screening assay to identify enhancers of beta-glucosidase activity. [Related pubchem assays: 784 ]; format: functional
[14] = target: Serine/threonine-protein phosphatase PP1-alpha catalytic subunit (Homo sapiens, UniProt P62136); experiment: inhibition of protein phosphatase 1 activity – biochemical, fluorescence, dose response (AID 2403);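 further: phosphatase turnover of OMFP into fluorescent 3-O-methylfluorescein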
[15] = target: Serine/threonine-protein phosphatase (Homo sapiens, UniProt Q9BPW0); experiment: Counterscreen for inhibitors of PP1: fluorescence-based biochemical high throughput dose response assay to identify inhibitors of Protein Phosphatase 5 (PP5). [Related pubchem assays: 2034 (Summary (PP5 inhibitors)), 1987 (PP5 inhibitors in singlate), 2235 (PP1 inhibitors in singlate)]
[16] = target: T6, Probable nicotinate-nucleotide adenylyltransferase (Staphylococcus aureus (strain N315), UniProt P65502); format: functional, Staphylococcus aureus subsp. aureus N315;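 on IC50 Mean: confirmatory dose-response retesting of NadD inhibitor hits first found in an ultra-high-throughput screen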
[17] = target: T7, Alkaline phosphatase, tissue-nonspecific isozyme (Homo sapiens, UniProt P05186)
T7 sequence (P05186 whole entry): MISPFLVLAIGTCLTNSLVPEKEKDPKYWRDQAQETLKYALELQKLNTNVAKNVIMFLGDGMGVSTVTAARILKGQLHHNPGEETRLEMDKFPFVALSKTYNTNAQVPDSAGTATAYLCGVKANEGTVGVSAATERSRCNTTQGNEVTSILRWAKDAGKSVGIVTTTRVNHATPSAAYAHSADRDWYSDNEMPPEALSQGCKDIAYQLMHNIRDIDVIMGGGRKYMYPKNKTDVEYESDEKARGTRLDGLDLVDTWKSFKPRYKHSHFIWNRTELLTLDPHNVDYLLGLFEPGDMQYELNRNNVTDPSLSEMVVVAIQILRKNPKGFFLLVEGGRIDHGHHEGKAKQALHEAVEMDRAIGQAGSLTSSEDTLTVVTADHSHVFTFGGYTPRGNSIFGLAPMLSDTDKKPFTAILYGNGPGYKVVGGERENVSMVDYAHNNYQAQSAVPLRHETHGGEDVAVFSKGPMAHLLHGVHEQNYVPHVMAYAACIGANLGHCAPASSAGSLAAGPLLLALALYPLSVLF

[18] = target: T6, Probable nicotinate-nucleotide adenylyltransferase; format: functional, Staphylococcus aureus subsp. aureus N315; settings: read-out: IC50_Mean
X-box-binding protein 1 = X-box-binding protein 1 (Homo sapiens, UniProt P17861); format: functional, Cricetulus griseus;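 further: confirmatory dose-response counter-screen serving a CHOP assay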
[19] = viability of HCT116 lacking mutant beta-catenin – cell-based, human colon tumor, dose response (AID 1045); format: functional;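 further: HCT116 colon tumor cells with beta catenin knocked out; cells exposed to compound for 60 hours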
[20] = target: Neurotensin receptor type 1 (Homo sapiens, UniProt P30989); format: functional;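 further: Image-based confirmatory dose-response assay measuring agonist activity at NTR1; NTR1-expressing U2OS osteosarcoma cells imaged for beta-arrestin GFP spot formation; agonist potency where compounds increase beta-arrestin recruitment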
[21] = viability of PTEN-deleted HCT116 cells – cell-based, HCT116 PTEN knockout, dose response (AID 1047); format: functional;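 further: HCT116 colon tumor cells with PTEN knocked out; cells exposed to compound for 60 hours before readout; potency for loss of cell viability measured by luminescence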
Cytochrome P450 2D6 = Cytochrome P450 2D6 (Homo sapiens, UniProt P10635); experiment: qHTS Assay for Inhibitors and Substrates of Cytochrome P450 2D6. [Related pubchem assays: 410 ]; format: ADME; settings: read-out: Potency
[22] = target: Signal transducer and activator of transcription 3 (Homo sapiens, UniProt P40763); experiment: STAT3 activation with BCL3 mRNA and toxicity – cell-based, […], BCL3 qPCR, cytotoxicity, late-stage follow-up, panel member STAT3 Activation (AID 2049)
Signal transducer and activator of transcription 3, sequence (P40763 whole entry): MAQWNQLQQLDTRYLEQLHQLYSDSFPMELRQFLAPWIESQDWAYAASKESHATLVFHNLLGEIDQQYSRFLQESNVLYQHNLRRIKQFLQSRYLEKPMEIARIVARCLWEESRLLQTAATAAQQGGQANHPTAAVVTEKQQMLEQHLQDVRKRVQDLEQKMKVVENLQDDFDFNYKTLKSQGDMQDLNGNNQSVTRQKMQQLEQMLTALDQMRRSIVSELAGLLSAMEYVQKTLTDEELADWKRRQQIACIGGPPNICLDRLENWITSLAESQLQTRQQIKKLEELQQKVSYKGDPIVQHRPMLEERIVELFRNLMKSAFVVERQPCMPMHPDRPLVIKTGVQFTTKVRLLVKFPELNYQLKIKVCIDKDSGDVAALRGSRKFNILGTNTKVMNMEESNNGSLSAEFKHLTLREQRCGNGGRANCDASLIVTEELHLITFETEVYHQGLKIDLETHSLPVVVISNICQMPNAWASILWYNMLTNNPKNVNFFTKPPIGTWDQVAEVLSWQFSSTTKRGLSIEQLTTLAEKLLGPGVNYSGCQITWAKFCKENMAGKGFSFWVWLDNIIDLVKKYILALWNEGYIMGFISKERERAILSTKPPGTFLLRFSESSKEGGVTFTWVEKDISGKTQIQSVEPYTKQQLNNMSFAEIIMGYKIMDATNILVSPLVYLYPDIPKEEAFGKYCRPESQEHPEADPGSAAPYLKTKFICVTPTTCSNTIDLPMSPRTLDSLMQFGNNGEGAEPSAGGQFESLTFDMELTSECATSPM

T6 sequence (P65502 whole entry): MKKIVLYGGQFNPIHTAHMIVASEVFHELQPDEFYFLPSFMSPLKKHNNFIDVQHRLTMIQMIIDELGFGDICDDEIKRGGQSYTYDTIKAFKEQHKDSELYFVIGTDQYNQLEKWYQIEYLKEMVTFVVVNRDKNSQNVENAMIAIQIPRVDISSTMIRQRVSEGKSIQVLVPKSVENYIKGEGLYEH
T1 sequence (Q9NZJ5 whole entry): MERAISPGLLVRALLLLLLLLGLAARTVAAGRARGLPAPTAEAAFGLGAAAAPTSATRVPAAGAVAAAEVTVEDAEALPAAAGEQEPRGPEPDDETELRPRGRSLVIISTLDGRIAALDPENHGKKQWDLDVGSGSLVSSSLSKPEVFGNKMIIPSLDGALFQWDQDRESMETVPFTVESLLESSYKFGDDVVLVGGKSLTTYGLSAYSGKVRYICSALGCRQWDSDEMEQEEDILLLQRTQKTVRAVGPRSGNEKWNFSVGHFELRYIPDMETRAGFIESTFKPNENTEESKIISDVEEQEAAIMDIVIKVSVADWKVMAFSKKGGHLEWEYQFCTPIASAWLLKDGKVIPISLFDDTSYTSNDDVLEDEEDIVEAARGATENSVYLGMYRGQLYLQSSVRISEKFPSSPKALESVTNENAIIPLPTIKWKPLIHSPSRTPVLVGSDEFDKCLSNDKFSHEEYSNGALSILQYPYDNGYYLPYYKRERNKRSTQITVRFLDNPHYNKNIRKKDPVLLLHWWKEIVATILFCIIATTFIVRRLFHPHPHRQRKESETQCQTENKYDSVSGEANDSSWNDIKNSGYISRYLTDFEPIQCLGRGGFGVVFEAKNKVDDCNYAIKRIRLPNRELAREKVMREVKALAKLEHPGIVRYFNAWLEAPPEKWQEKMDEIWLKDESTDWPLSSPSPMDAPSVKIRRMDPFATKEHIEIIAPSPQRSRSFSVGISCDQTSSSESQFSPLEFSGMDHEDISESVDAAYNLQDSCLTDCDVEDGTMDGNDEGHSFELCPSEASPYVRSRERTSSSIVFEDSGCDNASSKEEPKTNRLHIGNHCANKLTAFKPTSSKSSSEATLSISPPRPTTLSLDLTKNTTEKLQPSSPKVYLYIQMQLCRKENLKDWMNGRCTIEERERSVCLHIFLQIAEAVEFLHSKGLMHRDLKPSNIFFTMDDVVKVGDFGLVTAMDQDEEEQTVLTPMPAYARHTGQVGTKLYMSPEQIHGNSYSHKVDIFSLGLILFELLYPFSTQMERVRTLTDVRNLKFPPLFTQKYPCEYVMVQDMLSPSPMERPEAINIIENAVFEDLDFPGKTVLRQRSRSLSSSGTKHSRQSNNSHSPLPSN
Serine/threonine-protein phosphatase PP1-alpha catalytic subunit, sequence (P62136 whole entry): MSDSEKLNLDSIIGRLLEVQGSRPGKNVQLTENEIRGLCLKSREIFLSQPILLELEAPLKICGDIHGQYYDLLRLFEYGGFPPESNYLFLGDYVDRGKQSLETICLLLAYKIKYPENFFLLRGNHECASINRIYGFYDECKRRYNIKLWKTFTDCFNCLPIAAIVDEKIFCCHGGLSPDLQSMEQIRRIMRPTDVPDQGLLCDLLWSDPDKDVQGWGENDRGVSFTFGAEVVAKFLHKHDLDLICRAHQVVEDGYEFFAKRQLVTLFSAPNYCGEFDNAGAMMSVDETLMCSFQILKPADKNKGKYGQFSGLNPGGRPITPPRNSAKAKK
Luciferin 4-monooxygenase, sequence (P08659 whole entry): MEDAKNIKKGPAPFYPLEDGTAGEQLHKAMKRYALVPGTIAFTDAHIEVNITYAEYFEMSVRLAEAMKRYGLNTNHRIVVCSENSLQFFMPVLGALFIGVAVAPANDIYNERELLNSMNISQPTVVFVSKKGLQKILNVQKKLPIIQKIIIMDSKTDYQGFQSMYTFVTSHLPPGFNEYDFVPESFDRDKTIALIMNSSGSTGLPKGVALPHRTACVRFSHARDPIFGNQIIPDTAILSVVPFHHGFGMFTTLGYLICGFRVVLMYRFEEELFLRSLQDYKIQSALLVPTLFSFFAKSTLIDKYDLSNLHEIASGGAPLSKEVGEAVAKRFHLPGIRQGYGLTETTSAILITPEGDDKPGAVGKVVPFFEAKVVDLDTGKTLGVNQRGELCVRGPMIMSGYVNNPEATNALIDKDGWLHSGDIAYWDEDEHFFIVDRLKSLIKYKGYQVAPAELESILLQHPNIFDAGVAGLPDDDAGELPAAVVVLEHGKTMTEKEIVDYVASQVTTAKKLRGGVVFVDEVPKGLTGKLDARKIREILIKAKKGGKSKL
Serine/threonine-protein phosphatase, sequence (Q9BPW0 whole entry): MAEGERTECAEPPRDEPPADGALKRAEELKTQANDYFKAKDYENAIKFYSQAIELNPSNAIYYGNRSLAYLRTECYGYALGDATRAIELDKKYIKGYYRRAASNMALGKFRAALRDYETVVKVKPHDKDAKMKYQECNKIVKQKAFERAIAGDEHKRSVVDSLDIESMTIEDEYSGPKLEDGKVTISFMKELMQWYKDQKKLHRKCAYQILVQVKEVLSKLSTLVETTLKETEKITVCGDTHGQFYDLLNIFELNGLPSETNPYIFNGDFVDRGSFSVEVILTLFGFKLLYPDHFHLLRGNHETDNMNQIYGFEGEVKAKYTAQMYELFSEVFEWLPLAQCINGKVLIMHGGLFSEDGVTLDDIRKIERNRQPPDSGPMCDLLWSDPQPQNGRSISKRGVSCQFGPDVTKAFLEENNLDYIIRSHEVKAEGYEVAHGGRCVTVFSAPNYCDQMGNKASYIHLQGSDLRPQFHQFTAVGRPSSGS
Cytochrome P450 3A4, sequence (P08684 whole entry): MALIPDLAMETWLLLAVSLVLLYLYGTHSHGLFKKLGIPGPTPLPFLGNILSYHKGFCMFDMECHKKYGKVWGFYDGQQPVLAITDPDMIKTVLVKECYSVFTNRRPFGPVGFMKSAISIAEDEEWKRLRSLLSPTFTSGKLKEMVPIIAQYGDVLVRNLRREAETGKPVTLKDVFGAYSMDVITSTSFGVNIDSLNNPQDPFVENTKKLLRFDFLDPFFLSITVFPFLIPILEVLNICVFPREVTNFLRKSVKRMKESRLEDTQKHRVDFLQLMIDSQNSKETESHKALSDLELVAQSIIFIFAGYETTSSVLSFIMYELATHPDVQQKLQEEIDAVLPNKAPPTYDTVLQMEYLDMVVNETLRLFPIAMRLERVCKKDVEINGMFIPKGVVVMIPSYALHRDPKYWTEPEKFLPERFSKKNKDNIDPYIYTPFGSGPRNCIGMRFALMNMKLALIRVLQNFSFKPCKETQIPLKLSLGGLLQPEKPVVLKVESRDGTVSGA
Mothers against decapentaplegic homolog 3, sequence (P84022 whole entry): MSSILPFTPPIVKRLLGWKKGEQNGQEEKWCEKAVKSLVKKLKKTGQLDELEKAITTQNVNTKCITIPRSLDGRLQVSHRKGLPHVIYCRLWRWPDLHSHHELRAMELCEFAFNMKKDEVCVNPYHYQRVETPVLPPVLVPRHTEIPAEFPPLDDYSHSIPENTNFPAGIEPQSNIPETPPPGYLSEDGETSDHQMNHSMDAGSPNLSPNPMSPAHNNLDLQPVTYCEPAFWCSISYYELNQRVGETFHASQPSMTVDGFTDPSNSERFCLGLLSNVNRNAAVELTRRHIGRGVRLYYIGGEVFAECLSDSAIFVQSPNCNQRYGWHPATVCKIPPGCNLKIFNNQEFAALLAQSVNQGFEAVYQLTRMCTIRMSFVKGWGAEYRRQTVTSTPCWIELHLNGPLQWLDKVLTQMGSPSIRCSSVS
Melanin-concentrating hormone receptor 1, sequence (Q99705 whole entry): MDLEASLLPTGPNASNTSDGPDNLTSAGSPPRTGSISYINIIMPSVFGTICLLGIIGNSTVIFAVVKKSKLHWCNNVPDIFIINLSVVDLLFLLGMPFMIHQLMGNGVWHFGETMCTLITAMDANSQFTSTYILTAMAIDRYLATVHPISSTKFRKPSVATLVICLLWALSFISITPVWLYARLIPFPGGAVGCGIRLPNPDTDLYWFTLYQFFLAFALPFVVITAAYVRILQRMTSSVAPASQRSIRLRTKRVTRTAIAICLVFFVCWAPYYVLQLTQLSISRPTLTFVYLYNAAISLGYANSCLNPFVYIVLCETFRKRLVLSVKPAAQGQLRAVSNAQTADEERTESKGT

COC(=O)c1ccccc1C1c2ccc(O)c(O)c2OC2=C(O)C(=O)C=CC21 (stereo not given)
IC50 [1]: > 50 µM (not active)

Cc1cc(Br)ccc1SCC(=O)OCC(=O)NCc1ccco1
IC50 [2]: 9.37 µM (active) | IC50 [3]: 2.93 µM (active)

Cc1ccnc(NS(=O)(=O)c2cc(C(F)(F)F)ccc2Cl)c1
EC50 [4]: > 55.7 µM (not active) | EC50 [5]: > 55.7 µM (not active)

O=C(CSc1nnc(Cc2ccccc2)n1Cc1ccco1)NC1CCCC1
IC50 [6]: > 43.8 µM (not active) | IC50 [7]: > 43.8 µM (not active)

CCN(CC)CCOC(=O)c1ccc(NC(=O)COc2cc(=O)n(CC)c3ccccc23)cc1
IC50 [8]: > 80 µM (inactive)

COC(=O)c1ccccc1NC(=O)CCCOc1cc(=O)n(C)c2ccccc12
EC50 (Wee1-like protein kinase): > 49.7 µM (inactive) | EC50 [9]: > 49.7 µM (inactive)

Cc1ccc(C)c(N2CCN(C(=O)c3ccc4nc(-c5ccco5)c(-c5ccco5)nc4c3)CC2)c1
AC50 (Cytochrome P450 1A2): 15.8 µM (inconclusive) | IC50 (NS3): 14.2 µM (not active) | AC50 (Cytochrome P450 3A4): 20 µM (inconclusive)

Nc1sc(-c2ccccc2)cc1-c1nnc(S)n1C1CCCCC1
EC50 [10]: 30.8 µM (not active) | EC50 [11]: 24.4 µM (not active) | EC50 (HEK293): 22.5 µM (not active)

C=CCNc1ncnc2c1cnn2-c1ccc(OC)cc1
EC50 [12]: 0.33 µM (active) | EC50 (HT-1080): > 50 µM (not active)

CC1CCC(C(=O)NC(C(=O)NCCCN2CCOCC2)C(C)C)CC1 (stereo not given)
EC50 [13]: > 10 µM (not active)

O=C(O)c1cc(-c2ccc(Cl)c(Cl)c2)n(-c2ccc(F)cc2)n1
IC50 [14]: 8.13 µM (active) | IC50 [15]: > 67 µM (not active)

COCc1cc(O)n2nc(-c3ccsc3-n3c(C)ccc3C)cc2n1
IC50 [16]: 13.3 µM (active) | EC50 [17]: > 100 µM (not active) | IC50 [18]: 51.3 µM (active)

Cc1cc2c3c(c1)C(C)(c1ccccc1)CC(C)(C)N3C(=O)C21C(C#N)=C(N)OC2=C1C(=O)CC(C)(C)C2 (stereo not given)
Absolute IC50 (XBP1) (X-box-binding protein 1): 10 µM | EC50 [19]: 20.4 µM (active) | EC50 [20]: 22 µM (inactive) | EC50 [21]: 19.4 µM (active)

CC(C)[C@@H]1OC(=O)\C=C/C=C\C=C/C=C\C=C/C[C@@H](O)[C@H](C)[C@@H](O)C[C@H](O)C[C@H](O)C[C@H](O)C[C@H](O)C[C@H](O)C[C@H](O)/C=C\[C@@H]1C
AC50 (Cytochrome P450 2D6): 0.316 µM (inconclusive)

COc1cccc(NC(=O)c2cc(C3CC3)on2)c1
EC50 [22]: > 5.57 µM (inactive)
